{"source": "patent US6706716B2", "about": "“Compounds specific for the human α1d adrenergic receptor and uses thereof” (Synaptic Pharmaceutical Corporation, priority 1998, dated 2004)", "biological_target": "T1, human 5-HT1Dβ (5-HT1B) receptor (Homo sapiens, UniProt P28222)", "T1 construct": "expressed in transfected cells; host or cells: LM(tk-) clonal cell line Ltk-11 (ATCC CRL 10422)", "T1 sequence (P28222 whole entry)": "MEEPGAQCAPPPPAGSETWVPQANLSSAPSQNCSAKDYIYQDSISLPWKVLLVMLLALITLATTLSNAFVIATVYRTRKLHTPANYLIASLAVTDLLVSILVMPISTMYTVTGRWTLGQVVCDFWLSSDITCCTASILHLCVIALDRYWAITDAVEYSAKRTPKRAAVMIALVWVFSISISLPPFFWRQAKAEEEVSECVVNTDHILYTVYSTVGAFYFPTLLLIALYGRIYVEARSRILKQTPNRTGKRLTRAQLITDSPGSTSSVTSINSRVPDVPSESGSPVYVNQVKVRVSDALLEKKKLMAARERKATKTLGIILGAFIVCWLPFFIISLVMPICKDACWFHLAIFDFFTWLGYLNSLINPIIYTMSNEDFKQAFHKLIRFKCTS", "experiment": "Competition binding ([3H]serotonin) at cloned human 5-HT1Dβ (5-HT1B) receptor", "settings": "read-out: binding affinity (pKi) 5-HT1Dβ (5-HT1B) (converted)", "protocol": "5-HT1Dα (5-HT1D) and 5-HT1Dβ (5-HT1B) receptors: The cell lysates of the LM(tk-) clonal cell line stably transfected with the genes encoding each of these 5-HT receptor subtypes were prepared as described above. The cell line for the 5-HT1Dα (5-HT1D) receptor, designated as Ltk-8-30-84, was deposited on Apr. 17, 1990, and accorded ATCC Accession No. CRL 10421. The cell line for the 5-HT1Dβ (5-HT1B) receptor, designated as Ltk-11, was deposited on Apr. 17, 1990, and accorded ATCC Accession No. CRL 10422. These preparations were suspended in 50 mM Tris-HCl buffer (pH 7.4 at 37° C.) containing 10 mM MgCl2, 0.2 mM EDTA, 10 μM pargyline, and 0.1% ascorbate. […] Nonspecific binding was determined in the presence of 10 μM serotonin. The bound radioligand was separated by filtration through GF/B filters using a cell harvester."}
{"smiles": "O=C1CC2(CCCC2)CC(=O)N1CCN1CCN(c2cc(F)c(F)cc2F)CC1", "note": "[Compound 7, 8-{2-[4-(2,4,5-Trifluorophenyl)piperazin-1-yl]ethyl}-8-azaspiro[4.5]decane-7,9-dione]", "values": [{"measurement": "Ki", "result": 5.01, "unit": "µM"}]}
